In US11835522B2, “Sensors for detecting and imaging of cancer metastasis” (Massachusetts Institute of Technology, priority 2019, dated 2023):

Tests used:
CRC liver metastases = test: 5-FU treatment monitored with PRISM, CRC liver metastasis model; format: in vivo, mice; details: 5-FU 15 mg/kg i.p.
Text: (§1) After validation of the efficacy of tailored PRISM nanoparticles, these sensors were applied to study how proteolytic activities correlate with changes in the progression of disease over time and in response to drug treatment. In addition, molecular imaging was safely performed for any lesion for multiple times, providing information related to regional heterogeneity in a given tumor. To evaluate PRISM in monitoring treatment responses, mice were grouped into two categories (n=5 each) to allow monitoring the effect of standard chemotherapy 5-FU treatment: one group received drug (15 mg/kg) by i.p. injection (daily injection for 4 days and once every other day till end of study); and the second group received vehicle as control. To monitor therapeutic responses in treating metastases, PRISM was intravenously injected in each group of mice. After 1 hr of sensor injection, urinary reporter level was assayed to track local proteolytic activity, reflecting tumor invasion capacity. At 6 hrs post-injection, mice were scanned using a small animal PET/CT imager for longitudinal assessment of the tumor progression. […] Real-time images were analyzed and standard uptake value of radioactive reporters were quantified using VivoQuant software.

CRC lung metastases = test: 5-FU treatment monitored with PRISM, CRC lung metastasis model; format: in vivo, mice
Text: as §1
To monitor therapeutic responses when metastases in the CRC lung metastasis model were treated, PRISM was again intravenously injected in two group of mice on a weekly basis. One hour following sensor injection, urinary reporter level was read to track the local proteolytic activity. […] 6 hours after sensor injection, PET/CT were applied to monitor tumor growth or regression, which provides a longitudinal, noninvasive assessment of the efficacy of anti-tumor drug treatment. […] Consistently, the relative lung/liver ratio of PET/CT signal in the cohort that received no treatment was over 3 times higher than that of the cohort treated with chemotherapy (n=5) (FIG. 6G).

O=c1[nH]cc(F)c(=O)[nH]1 [5-FU]
tumor progression / tumor growth vs untreated (CRC liver metastases; started two weeks after tumor inoculation, PET/CT): significantly inhibited tumor progression | urinary reporter level vs non-treated cohort (CRC liver metastases; urine 1 hr after PRISM injection): decreased urinary reporter level | urinary reporter level vs untreated control group (CRC lung metastases; 5-FU treated mice, urine one hour after PRISM injection): Significantly reduced urinary reporter levels | tumor growth vs untreated controls (CRC lung metastases; PET/CT 6 hours after sensor injection): slower tumor growth | relative lung/liver ratio of PET/CT signal, untreated cohort relative to 5-FU treated cohort (CRC lung metastases; n=5, FIG. 6G): over 3 times
